# Experimental data reported in ChEMBL document CHEMBL1201862, “PubChem BioAssay data set” (2004).
# Calls of active or inactive are those of the source.
# How the values were obtained:
# [1] = molecular target: Potassium channel subfamily K member 9 (Homo sapiens, UniProt Q9NPC2); test: TASK3 (KCNK9) channel inhibitors, thallium flux, SAR follow-up, selectivity assay for TASK1 inhibitor project, cell-based, FluxOR thallium flux, concentration-response (AID 652211); format: functional;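 note: potency is for inhibitors of the channel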
# Chain of Potassium channel subfamily K member 9 (Q9NPC2 whole entry, the tested form may be a part): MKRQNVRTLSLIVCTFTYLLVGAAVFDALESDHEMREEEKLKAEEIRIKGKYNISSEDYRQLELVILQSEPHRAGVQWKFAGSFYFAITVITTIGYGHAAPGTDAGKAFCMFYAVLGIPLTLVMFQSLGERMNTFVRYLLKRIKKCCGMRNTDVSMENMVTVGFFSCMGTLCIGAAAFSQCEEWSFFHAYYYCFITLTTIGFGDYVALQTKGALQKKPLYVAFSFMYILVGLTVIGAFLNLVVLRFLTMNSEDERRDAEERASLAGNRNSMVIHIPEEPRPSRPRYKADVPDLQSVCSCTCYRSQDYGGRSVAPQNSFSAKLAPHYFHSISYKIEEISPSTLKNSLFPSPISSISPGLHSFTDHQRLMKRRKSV
# [2] = molecular target: T1, RNA-binding protein pos-1 (Caenorhabditis elegans, UniProt G5EF15); test: inhibitors of POS-1/mex-3 RNA binding, dose response, biochemical, fluorescence polarization (AID 1964);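 note: purified POS-1 fused to maltose binding protein made in E. coli; potency of compounds blocking POS-1 binding to fluorescent RNA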
# T1 sequence (G5EF15 whole entry): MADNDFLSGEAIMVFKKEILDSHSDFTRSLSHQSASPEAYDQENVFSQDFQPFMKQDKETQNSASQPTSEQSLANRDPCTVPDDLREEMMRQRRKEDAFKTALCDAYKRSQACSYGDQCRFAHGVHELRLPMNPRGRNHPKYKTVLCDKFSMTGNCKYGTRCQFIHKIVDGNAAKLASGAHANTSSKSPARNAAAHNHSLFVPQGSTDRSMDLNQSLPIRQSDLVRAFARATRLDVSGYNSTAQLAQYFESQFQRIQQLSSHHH
# [3] = molecular target: T2, Histone-lysine N-methyltransferase NSD2 (Homo sapiens, UniProt O96028); format: biochemical
# T2 sequence (O96028 whole entry): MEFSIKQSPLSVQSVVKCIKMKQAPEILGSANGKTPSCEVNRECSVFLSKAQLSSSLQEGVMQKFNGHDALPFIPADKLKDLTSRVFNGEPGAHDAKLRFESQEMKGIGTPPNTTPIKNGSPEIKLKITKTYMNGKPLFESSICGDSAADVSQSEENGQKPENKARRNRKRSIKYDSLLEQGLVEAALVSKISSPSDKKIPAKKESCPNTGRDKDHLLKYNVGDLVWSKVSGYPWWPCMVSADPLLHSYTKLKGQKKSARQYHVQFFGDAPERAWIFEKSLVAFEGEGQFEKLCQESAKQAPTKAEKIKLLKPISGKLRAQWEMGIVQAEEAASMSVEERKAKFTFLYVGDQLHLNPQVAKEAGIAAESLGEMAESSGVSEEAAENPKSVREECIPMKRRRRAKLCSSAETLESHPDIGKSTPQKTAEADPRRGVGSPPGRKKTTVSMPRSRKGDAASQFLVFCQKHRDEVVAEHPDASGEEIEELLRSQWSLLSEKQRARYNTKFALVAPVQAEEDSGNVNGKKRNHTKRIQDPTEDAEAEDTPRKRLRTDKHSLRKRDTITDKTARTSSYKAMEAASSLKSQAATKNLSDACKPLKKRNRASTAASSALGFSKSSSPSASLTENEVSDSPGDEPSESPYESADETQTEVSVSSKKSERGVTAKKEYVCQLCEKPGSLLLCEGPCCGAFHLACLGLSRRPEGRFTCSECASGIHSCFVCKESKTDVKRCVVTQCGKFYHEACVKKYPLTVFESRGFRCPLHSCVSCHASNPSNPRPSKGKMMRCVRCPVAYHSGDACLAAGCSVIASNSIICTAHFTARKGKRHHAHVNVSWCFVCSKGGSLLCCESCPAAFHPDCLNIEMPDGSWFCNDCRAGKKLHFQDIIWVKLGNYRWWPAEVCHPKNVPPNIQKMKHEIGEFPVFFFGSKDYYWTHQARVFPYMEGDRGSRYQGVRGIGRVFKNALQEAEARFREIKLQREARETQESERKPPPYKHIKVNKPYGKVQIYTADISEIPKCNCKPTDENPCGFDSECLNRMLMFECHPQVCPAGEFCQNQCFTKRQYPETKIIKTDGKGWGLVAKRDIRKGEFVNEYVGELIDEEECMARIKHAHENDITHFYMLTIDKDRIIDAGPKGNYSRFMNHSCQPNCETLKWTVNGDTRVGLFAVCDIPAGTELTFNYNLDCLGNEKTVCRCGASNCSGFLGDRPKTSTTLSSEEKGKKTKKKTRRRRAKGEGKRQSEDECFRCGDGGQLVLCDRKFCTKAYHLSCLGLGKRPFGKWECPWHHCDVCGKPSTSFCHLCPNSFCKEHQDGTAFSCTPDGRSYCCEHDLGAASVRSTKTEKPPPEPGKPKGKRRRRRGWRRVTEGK
# [4] = molecular target: T3, Zinc finger protein mex-5 (Caenorhabditis elegans, UniProt Q9XUB2); test: MEX-5/TCR-2 RNA interaction inhibitors, dose response, biochemical, C. elegans, fluorescence polarization (AID 1960)
# T3 sequence (Q9XUB2 whole entry): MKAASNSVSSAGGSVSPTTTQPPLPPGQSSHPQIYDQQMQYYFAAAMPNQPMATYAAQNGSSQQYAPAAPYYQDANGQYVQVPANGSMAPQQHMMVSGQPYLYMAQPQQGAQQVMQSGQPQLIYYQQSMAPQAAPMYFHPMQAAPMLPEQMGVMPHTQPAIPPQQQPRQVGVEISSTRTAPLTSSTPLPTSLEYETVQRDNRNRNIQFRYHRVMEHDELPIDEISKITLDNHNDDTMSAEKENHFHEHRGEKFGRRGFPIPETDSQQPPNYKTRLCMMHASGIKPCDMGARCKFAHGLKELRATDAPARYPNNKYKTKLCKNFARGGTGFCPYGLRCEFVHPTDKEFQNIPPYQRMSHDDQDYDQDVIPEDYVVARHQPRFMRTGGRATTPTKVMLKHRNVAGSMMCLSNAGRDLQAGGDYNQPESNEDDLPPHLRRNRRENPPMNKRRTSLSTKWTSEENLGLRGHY
# Protein RecA = molecular target: T4, Protein RecA (Mycobacterium tuberculosis, UniProt P9WHJ3); test: Fluorescence Cell-Free Homogeneous Dose Retest to Identify Inhibitors of RecA-Intein Splicing Activity. [Related pubchem assays (depositor defined):AID2097, AID2223, AID489010, AID492950]; format: functional
# T4 sequence (P9WHJ3 whole entry): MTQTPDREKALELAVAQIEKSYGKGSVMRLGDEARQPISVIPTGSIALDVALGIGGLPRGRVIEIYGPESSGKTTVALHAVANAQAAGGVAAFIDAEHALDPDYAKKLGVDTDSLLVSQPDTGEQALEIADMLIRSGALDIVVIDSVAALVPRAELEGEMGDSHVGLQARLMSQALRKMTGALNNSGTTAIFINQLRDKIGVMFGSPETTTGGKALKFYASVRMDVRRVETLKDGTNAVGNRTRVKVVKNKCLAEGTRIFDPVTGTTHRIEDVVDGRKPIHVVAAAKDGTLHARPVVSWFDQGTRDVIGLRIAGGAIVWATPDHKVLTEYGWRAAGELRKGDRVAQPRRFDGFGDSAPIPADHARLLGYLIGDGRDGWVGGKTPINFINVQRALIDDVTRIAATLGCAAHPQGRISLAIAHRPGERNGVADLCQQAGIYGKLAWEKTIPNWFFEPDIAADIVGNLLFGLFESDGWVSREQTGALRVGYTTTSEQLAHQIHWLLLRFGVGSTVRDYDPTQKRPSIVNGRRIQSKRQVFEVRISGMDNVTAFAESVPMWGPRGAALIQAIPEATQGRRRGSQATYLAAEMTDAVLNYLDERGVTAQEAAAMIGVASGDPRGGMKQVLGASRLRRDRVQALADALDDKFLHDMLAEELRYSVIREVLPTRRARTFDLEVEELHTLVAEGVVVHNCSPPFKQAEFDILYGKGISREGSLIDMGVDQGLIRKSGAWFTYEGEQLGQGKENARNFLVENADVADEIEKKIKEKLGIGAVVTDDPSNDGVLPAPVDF
# [5] = molecular target: T5, Tyrosyl-DNA phosphodiesterase 2 (Homo sapiens, UniProt O95551); test: human TDP2 enzyme inhibitors, dose response, biochemical, epi absorbance, IC50 (AID 743297)
# T5 sequence (O95551 whole entry): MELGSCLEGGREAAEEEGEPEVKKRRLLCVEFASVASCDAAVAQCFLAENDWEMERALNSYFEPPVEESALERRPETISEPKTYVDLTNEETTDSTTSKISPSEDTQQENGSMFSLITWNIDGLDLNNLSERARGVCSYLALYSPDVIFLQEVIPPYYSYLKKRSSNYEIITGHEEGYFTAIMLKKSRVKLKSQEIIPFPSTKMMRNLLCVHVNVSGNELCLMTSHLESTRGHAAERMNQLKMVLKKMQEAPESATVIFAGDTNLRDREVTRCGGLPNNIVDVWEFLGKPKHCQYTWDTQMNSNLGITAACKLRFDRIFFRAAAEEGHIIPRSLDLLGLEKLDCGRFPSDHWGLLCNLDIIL
# [6] = A549 cell cytotoxicity, dose response, cytotoxicity control, plate reader, cherry-pick, antagonist series (AID 743412); format: functional, cell-based
# [7] = HepG2 cell cytotoxicity, dose response, cytotoxicity control, plate reader, cherry-pick, antagonist series (AID 743416); format: functional, cell-based
# [8] = HEK293 cell cytotoxicity, dose response, cytotoxicity control, plate reader, cherry-picked samples (AID 743446); format: functional, cell-based
# [9] = MC4R antagonists, dose response, counter-screen for LGR2 antagonist project, cell-based, plate reader, cherry pick (AID 743444); format: functional;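 note: transfected HEK 293 cells stimulated with alpha-MSH peptide; potency of inhibitors of the alpha-MSH evoked signal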
# [10] = LGR2 antagonists, dose response, cell-based, HEK293, CRE-luciferase reporter, cherry pick, set 2 (AID 743343); format: functional;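 note: transfected cells were stimulated with diluted bursicon conditioned medium after compound addition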
# [11] = molecular target: T6, COUP transcription factor 2 (Homo sapiens, UniProt P24468); test: Luminescence-based cell-based high throughput dose response assay to identify inhibitors of COUP-TFII (NR2F2).; format: functional;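 note: HEK293 cells transiently cotransfected with COUP-TFII expression vector and reporter; luciferase reporter luminescence driven by COUP-TFII from the pX2-168 reporter plasmid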
# T6 sequence (P24468 whole entry): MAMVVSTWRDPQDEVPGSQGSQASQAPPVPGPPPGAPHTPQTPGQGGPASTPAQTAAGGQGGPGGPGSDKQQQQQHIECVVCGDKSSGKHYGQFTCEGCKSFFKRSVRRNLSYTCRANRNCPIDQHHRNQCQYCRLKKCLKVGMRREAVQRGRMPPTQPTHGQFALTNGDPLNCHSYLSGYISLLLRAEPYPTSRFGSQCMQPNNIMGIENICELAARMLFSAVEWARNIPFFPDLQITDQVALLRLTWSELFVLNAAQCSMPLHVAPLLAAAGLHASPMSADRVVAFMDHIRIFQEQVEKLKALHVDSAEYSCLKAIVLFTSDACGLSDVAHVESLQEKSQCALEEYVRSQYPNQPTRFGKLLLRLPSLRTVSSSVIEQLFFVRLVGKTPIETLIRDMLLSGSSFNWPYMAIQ
structure (smiles),measurement,setting,value
O=C(Nc1cccc(NC(=O)c2ccccc2Cl)c1)c1ccccc1,IC50,[1],33.4 µM (active)
CCCC1Nc2ccc(C(=O)O)cc2C2C=CCC12 (configuration not stated),EC50,[2],23.8 µM (active)
same,AC50,[3],16.8 µM (active)
same,EC50,[4],14.5 µM (active)
S=C(Nc1ccc2nsnc2c1)N1CCCCCC1,EC50,Protein RecA,46.7 µM (active)
same,IC50,[5],> 128 µM (inactive)
N#C[C@H]1[C@H](c2ccc(C#Cc3ccccc3F)cc2)[C@H](CO)N1C(=O)C1CCCC1,AC50,[6],23.6 µM (active)
same,AC50,[7],34.5 µM (active)
same,AC50,[8],8.77 µM (active)
same,AC50,[9],4.57 µM (active)
same,AC50,[10],5.64 µM (active)
Cc1c(C)n(Cc2ccccc2)c2ncnc(Cl)c12,IC50,[11],10.7 µM (inactive)
